# pEC50: −log10 of the molar value. The source made the active and inactive calls. No cut-off for these calls is given here.
# Tests used:
# [1] = test system: Mus musculus; assay: Anti-NASH activity in HF-CDAA-induced nonalcoholic steatohepatitis C57BL/6JNifdc mouse model assessed as lipid drop size at 3 to 30 mg/kg, po by H and E staining method; type: functional, organism-based; conditions: dose 3-30 mg/kg
# [2] = test system: Mus musculus; assay: Anti-NASH activity in HF-CDAA-induced nonalcoholic steatohepatitis C57BL/6JNifdc mouse model assessed as reversal of inflammatory infilitration 3 to 30 mg/kg, po by H and E staining method; type: functional, organism-based; conditions: dose 3-30 mg/kg
# [3] = test system: HepG2; assay: Agonist activity against PPARalpha/delta (unknown origin) assessed as upregulation of CPT1A mRNA expression in human HepG2 cells incubated for 12 hrs by RT-PCR analysis; type: cell-based; conditions: filed as agonist, dose 8-200 nM
# [4] = target: T1, Nuclear receptor subfamily 1 group I member 2 (Homo sapiens, UniProt O75469); assay: Agonist activity at human PXR (138 to 434 residues) in Cos7 cells transfected with LBD-Gal4 and pGL435 Gal4 UAS Luc reporter plasmid at 10 uM by reporter gene assay; type: cell-based; conditions: cos7, 10 µM
# T1 sequence (O75469 whole entry): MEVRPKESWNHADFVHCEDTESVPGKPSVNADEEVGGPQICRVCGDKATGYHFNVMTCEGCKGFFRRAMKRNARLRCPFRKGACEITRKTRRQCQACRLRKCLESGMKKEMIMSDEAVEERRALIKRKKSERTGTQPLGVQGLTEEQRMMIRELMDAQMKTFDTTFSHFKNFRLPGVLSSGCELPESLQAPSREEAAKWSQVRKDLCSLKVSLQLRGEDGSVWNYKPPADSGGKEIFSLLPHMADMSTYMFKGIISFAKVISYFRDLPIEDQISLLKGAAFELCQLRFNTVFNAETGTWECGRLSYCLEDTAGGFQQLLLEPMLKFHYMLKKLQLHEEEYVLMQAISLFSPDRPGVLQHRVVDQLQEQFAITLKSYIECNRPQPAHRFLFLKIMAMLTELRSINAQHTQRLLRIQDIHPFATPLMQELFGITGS
# [5] = test system: Mus musculus; assay: In vivo agonist activity against PPARalpha/delta assessed as upregulation of Slc25a20 mRNA expression in C57BL/6Nifdc mouse skeletal muscle at 10 mg/kg, po for 4 days; type: functional, organism-based; conditions: time 4.0 day
# [6] = test system: Mus musculus; assay: In vivo agonist activity at PPARalpha/delta assessed as upregulation of Mfn2 mRNA expression in C57BL/6Nifdc mouse liver at 10 mg/kg, po for 4 days; type: functional, organism-based; conditions: time 4.0 day
# [7] = test system: Mus musculus; assay: Anti-NASH activity in HF-CDAA-induced nonalcoholic steatohepatitis C57BL/6JNifdc mouse model assessed as decrease in level of serum AST 10 mg/kg, po by automatic biochemical analysis; type: functional, organism-based
# [8] = test system: Mus musculus; assay: In vivo agonist activity at PPARalpha/delta assessed as upregulation of Acadm-mRNA expression in C57BL/6Nifdc mouse liver at 10 mg/kg, po for 4 days; type: functional, organism-based; conditions: time 4.0 day
# [9] = test system: Mus musculus; assay: In vivo agonist activity against PPARalpha/delta assessed as upregulation of Cd36 mRNA expression in C57BL/6Nifdc mouse liver at 10 mg/kg, po for 4 days; type: functional, organism-based; conditions: time 4.0 day
# [10] = test system: Mus musculus; assay: In vivo agonist activity against PPARalpha/delta assessed as upregulation of Fabp1 mRNA expression in C57BL/6Nifdc mouse liver at 10 mg/kg, po for 4 days; type: functional, organism-based; conditions: time 4.0 day
# [11] = test system: Mus musculus; assay: In vivo agonist activity at PPARalpha/delta assessed as upregulation of Cpt2 mRNA expression in C57BL/6Nifdc mouse liver at 10 mg/kg, po for 4 days; type: functional, organism-based; conditions: time 4.0 day
# [12] = test system: Mus musculus; assay: In vivo agonist activity against PPARalpha/delta assessed as upregulation of Vnn1 mRNA expression in C57BL/6Nifdc mouse liver at 10 mg/kg, po for 4 days; type: functional, organism-based; conditions: time 4.0 day
# [13] = test system: Mus musculus; assay: Anti-fibrosis effect in CCl4 induced liver fibrosis C57BL/6JNifdc mouse model assessed as downregulation of Col1a1 expression at 3 to 30 mg/kg, po after 20 hrs by Western blot analysis; type: functional, organism-based; conditions: dose 3-30 mg/kg
# [14] = test system: AML12; assay: Agonist activity against PPARalpha/delta (unknown origin) assessed as upregulation of ACADVL mRNA expression in […] cells incubated for 12 hrs by RT-PCR analysis; type: cell-based; conditions: filed as agonist, dose 8-200 nM
# [15] = test system: Mus musculus; assay: In vivo agonist activity against PPARalpha/delta assessed as upregulation of Ugt1a9 mRNA expression in C57BL/6Nifdc mouse liver at 10 mg/kg, po for 4 days; type: functional, organism-based; conditions: time 4.0 day
# [16] = test system: Mus musculus; assay: Anti-fibrosis effect in CCl4 induced liver fibrosis C57BL/6JNifdc mouse model assessed as decrease in level of hydroxyproline level at 3 to 30 mg/kg, po after 20 hrs […]; type: functional, organism-based; conditions: dose 3-30 mg/kg
# [17] = test system: Mus musculus; assay: Anti-inflammatory activity in HF-CDAA-induced nonalcoholic steatohepatitis C57BL/6JNifdc mouse model assessed as decrease in Tnf mRNA expression at 10 mg/kg, po; type: functional, organism-based
# [18] = test system: AML12; assay: Agonist activity against PPARalpha/delta (unknown origin) assessed as upregulation of ACADVL mRNA expression in […] cells at 8 nM incubated for 12 hrs by RT-PCR analysis; type: cell-based; conditions: filed as agonist
# [19] = test system: C2C12; assay: Agonist activity against PPARalpha/delta (unknown origin) assessed as upregulation of Angpt14 mRNA expression in […] cells at 8 nM incubated for 12 hrs by RT-PCR analysis; type: cell-based; conditions: filed as agonist
# [20] = test system: Mus musculus; assay: In vivo agonist activity against PPARalpha/delta assessed as upregulation of Cpt2 mRNA expression in C57BL/6Nifdc mouse skeletal muscle at 10 mg/kg, po for 4 days; type: functional, organism-based; conditions: time 4.0 day
# [21] = test system: AML12; assay: Agonist activity against PPARalpha/delta (unknown origin) assessed as upregulation of Cpt1A mRNA expression in […] cells incubated for 12 hrs by RT-PCR analysis; type: cell-based; conditions: filed as agonist, dose 8-200 nM
# [22] = target: T2, Peroxisome proliferator-activated receptor alpha (Mus musculus, UniProt P23204); assay: Agonist activity at mouse PPARalpha transfected in Cos7 cells co-expressing with pBIND and pGL4.35 Gal4 UAS Luc reporter plasmid by measuring luciferase activity incubated for 16 hrs by luciferase reporter gene assay
# T2 sequence (P23204 whole entry): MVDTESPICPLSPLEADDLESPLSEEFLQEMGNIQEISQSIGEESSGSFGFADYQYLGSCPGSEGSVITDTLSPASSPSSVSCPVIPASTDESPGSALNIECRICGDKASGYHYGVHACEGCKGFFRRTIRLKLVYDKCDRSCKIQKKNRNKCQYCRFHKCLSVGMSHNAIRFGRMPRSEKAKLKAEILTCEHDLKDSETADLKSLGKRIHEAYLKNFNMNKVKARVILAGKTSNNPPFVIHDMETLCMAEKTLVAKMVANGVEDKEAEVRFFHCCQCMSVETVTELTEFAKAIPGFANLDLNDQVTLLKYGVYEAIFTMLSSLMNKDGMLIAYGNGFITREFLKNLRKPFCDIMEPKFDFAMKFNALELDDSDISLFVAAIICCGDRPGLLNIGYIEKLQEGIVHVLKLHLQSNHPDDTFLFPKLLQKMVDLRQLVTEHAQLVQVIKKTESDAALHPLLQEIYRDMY
# [23] = test system: Mus musculus; assay: Anti-inflammatory activity in HF-CDAA-induced nonalcoholic steatohepatitis C57BL/6JNifdc mouse model assessed as decrease in Il1b mRNA expression at 10 mg/kg, po; type: functional, organism-based
structure (smiles),measurement,setting,value
Cc1cc(Cn2ncn(-c3ccc(OC(F)(F)F)cc3)c2=O)cc(C)c1OC(C)(C)C(=O)O,Activity,[1],Active
same,Activity,[2],Active
same,Activity,[3],Dose-Dependent Effect
same,Activity,[4],Not Active
same,Activity,[5],Active
same,Activity,[6],Active
same,Activity,[7],Active
same,Activity,[8],Active
same,Activity,[9],Active
same,Activity,[10],Active
same,Activity,[11],Active
same,Activity,[12],Active
same,Activity,[13],Active
same,Activity,[14],Dose-Dependent Effect
same,Activity,[15],Active
same,Activity,[16],Active
same,Activity,[17],Active
same,Activity,[18],Active
same,Activity,[19],Active
same,Activity,[20],Active
same,Activity,[21],Dose-Dependent Effect
same,pEC50,[22],7.77
same,Activity,[23],Active

# Source: ChEMBL document CHEMBL5042526, “Design, Synthesis, and Biological Evaluation of Triazolone Derivatives as Potent PPARα/δ Dual Agonists for the Treatment of Nonalcoholic Steatohepatitis” (J Med Chem, 2022)
